Activity calls are given as the source filed them. The calls are words filed in the database; no cut-off is given here.
How the values were obtained:
Format in all cases: functional, tissue-based
Myometrium [1] = assay: Induction of contraction in beta-estradiol stimulated rat myometrium
Myometrium [2] = assay: Induction of contraction per minute in beta-estradiol stimulated rat myometrium at 1 nM
Myometrium [3] = assay: Induction of contraction per minute in beta-estradiol stimulated rat myometrium at 0.6 uM

SMILES | EC50 (Myometrium [1]) [nM] | Activity (Myometrium [2]) | Activity (Myometrium [3])
CC[C@H](C)[C@@H]1NC(=O)[C@H](Cc2ccc(O)cc2)NC(=O)[C@@H](N)CSSC[C@@H](C(=O)N2CCC[C@H]2C(=O)N[C@@H](CC(C)C)C(=O)NCC(=O)NC[C@H]2O[C@@H]3O[C@H]4[C@H](O)[C@@H](O)[C@@H](O[C@H]5[C@H](O)[C@@H](O)[C@@H](O[C@H]6[C@H](O)[C@@H](O)[C@@H](O[C@H]7[C@H](O)[C@@H](O)[C@@H](O[C@H]8[C@H](O)[C@@H](O)[C@@H](O[C@H]9[C@H](O)[C@@H](O)[C@@H](O[C@H]2[C@H](O)[C@H]3O)O[C@@H]9CO)O[C@@H]8CO)O[C@@H]7CO)O[C@@H]6CO)O[C@@H]5CO)O[C@@H]4CO)NC(=O)[C@H](CC(N)=O)NC(=O)[C@H](CCC(N)=O)NC1=O | 400 | – | –
CC[C@H](C)[C@@H]1NC(=O)[C@H](Cc2ccc(O)cc2)NC(=O)[C@@H](N)CSSC[C@@H](C(=O)N2CCC[C@H]2C(=O)N[C@@H](CC(C)C)C(=O)NCC(N)=O)NC(=O)[C@H](CC(N)=O)NC(=O)[C@H](CCC(N)=O)NC1=O [OXYTOCIN] | 1.7 | Active | –
CC[C@H](C)[C@@H]1NC(=O)[C@H](Cc2ccc(O)cc2)NC(=O)[C@H](N)CSSC[C@@H](C(=O)N2CCC[C@H]2C(=O)N[C@@H](CC(C)C)C(=O)NCC(=O)NC[C@H]2O[C@@H]3O[C@H]4[C@H](O)[C@@H](O)[C@@H](O[C@H]5[C@H](O)[C@@H](O)[C@@H](O[C@H]6[C@H](O)[C@@H](O)[C@@H](O[C@H]7[C@H](O)[C@@H](O)[C@@H](O[C@H]8[C@H](O)[C@@H](O)[C@@H](O[C@H]9[C@H](O)[C@@H](O)[C@@H](O[C@H]2[C@H](O)[C@H]3O)O[C@@H]9CO)O[C@@H]8CO)O[C@@H]7CO)O[C@@H]6CO)O[C@@H]5CO)O[C@@H]4CO)NC(=O)[C@H](CC(N)=O)NC(=O)[C@H](CCC(N)=O)NC1=O | – | – | Active

Reference: ChEMBL document CHEMBL1141533, “Synthesis and pharmacological evaluation of a new targeted drug carrier system: beta-cyclodextrin coupled to oxytocin” (Bioorg Med Chem Lett, 2008)
